ChEMBL document CHEMBL2062499, “Synthesis of benzofuran based 1,3,5-substituted pyrazole derivatives: as a new class of potent antioxidants and antimicrobials--a novel accost to amend biocompatibility” (Bioorg Med Chem Lett, 2012)

Legend:
Pseudomonas aeruginosa [1] = assay: Antibacterial activity Pseudomonas aeruginosa ATCC 27853 at 0.5 mg/ml after 24 hrs by well plate method; assay type: functional; conditions: ATCC 27853, 24 h, read-out: DIZ
Candida albicans [2] = assay: Antifungal activity against Candida albicans MTCC 2827 at 1 mg/ml after 72 hrs by well plate method; assay type: functional; conditions: MTCC 2827, 72 h, read-out: DIZ
Aspergillus flavus [3] = assay: Antifungal activity against Aspergillus flavus MTCC 3306 at 0.5 mg/ml after 72 hrs by well plate method; assay type: functional; conditions: MTCC 3306, 72 h, read-out: DIZ
[4] = Antifungal activity against Chrysosporium keratinophilum MTCC 3017 at 1 mg/ml after 72 hrs by well plate method; assay type: functional
Candida albicans [5] = assay: Antifungal activity against Candida albicans MTCC 2827 at 0.5 mg/ml after 72 hrs by well plate method; assay type: functional; conditions: MTCC 2827, 72 h, read-out: DIZ
Escherichia coli [6] = assay: Antibacterial activity Escherichia coli ATCC 25922 at 1 mg/ml after 24 hrs by well plate method; assay type: functional; conditions: ATCC 25922, 24 h, read-out: DIZ
Staphylococcus aureus [7] = assay: Antibacterial activity Staphylococcus aureus ATCC 25923 at 1 mg/ml after 24 hrs by well plate method; assay type: functional; conditions: ATCC 25923, 24 h, read-out: DIZ
[8] = Antifungal activity against Chrysosporium keratinophilum MTCC 3017 at 0.5 mg/ml after 72 hrs by well plate method; assay type: functional
Escherichia coli [9] = assay: Antibacterial activity Escherichia coli ATCC 25922 at 0.5 mg/ml after 24 hrs by well plate method; assay type: functional; conditions: ATCC 25922, 24 h, read-out: DIZ
Pseudomonas aeruginosa [10] = assay: Antibacterial activity Pseudomonas aeruginosa ATCC 27853 at 1 mg/ml after 24 hrs by well plate method; assay type: functional; conditions: ATCC 27853, 24 h, read-out: DIZ
Staphylococcus aureus [11] = assay: Antibacterial activity Staphylococcus aureus ATCC 25923 at 0.5 mg/ml after 24 hrs by well plate method; assay type: functional; conditions: ATCC 25923, 24 h, read-out: DIZ
Liver microsomes = assay: Antioxidant activity in Wistar rat liver microsomes assessed as inhibition of microsomal lipid peroxidation after 15 mins by MDA-TBA assay; assay type: functional, Microsome
[12] = tested on: Radical scavenging activity; assay: Antioxidant activity assessed as DPPH radical scavenging activity after 20 mins by UV-Vis spectrophotometric analysis; assay type: functional
Aspergillus flavus [13] = assay: Antifungal activity against Aspergillus flavus MTCC 3306 at 1 mg/ml after 72 hrs by well plate method; assay type: functional; conditions: MTCC 3306, 72 h, read-out: DIZ

Row | Structure (SMILES) | zone of inhibition at 500 µg/mL (Pseudomonas aeruginosa [1]) [mm] | zone of inhibition at 1000 µg/mL (Candida albicans [2]) [mm] | zone of inhibition at 500 µg/mL (Aspergillus flavus [3]) [mm] | inhibition zone (IZ) [4] [mm] | zone of inhibition at 500 µg/mL (Candida albicans [5]) [mm] | zone of inhibition at 1000 µg/mL (Escherichia coli [6]) [mm] | zone of inhibition at 1000 µg/mL (Staphylococcus aureus [7]) [mm] | inhibition zone (IZ) [8] [mm] | zone of inhibition at 500 µg/mL (Escherichia coli [9]) [mm] | zone of inhibition at 1000 µg/mL (Pseudomonas aeruginosa [10]) [mm] | zone of inhibition at 500 µg/mL (Staphylococcus aureus [11]) [mm] | IC50 (Liver microsomes) [uM/ml] | IC50 [12] [uM/ml] | zone of inhibition at 1000 µg/mL (Aspergillus flavus [13]) [mm]
1 | COc1cc(NC(=O)N2N=C(c3cc4ccccc4o3)CC2c2ccc(O)c(OC)c2)ccc1O (stereo unspecified) | 1 | 2 | 1 | 3 | 1 | 2 | 3 | 2 | 1 | 2 | 2 | 12 | 10 | 2
2 | COc1cc(C2CC(c3cc4ccccc4o3)=NN2C(=O)Nc2ccc(Br)cc2)ccc1O (stereo unspecified) | 7 | 19 | 4 | 10 | 15 | 16 | 8 | 9 | 10 | 10 | 6 | 115 | 105 | 6
3 | OC(Cn1cncn1)(Cn1cncn1)c1ccc(F)cc1F [FLUCONAZOLE] | – | 22 | 10 | 17 | 20 | – | – | 15 | – | – | – | – | – | 13
4 | COc1cc(C2CC(c3cc4ccccc4o3)=NN2C(=O)Nc2ccc(O)cc2)ccc1O (stereo unspecified) | 2 | 4 | 2 | 2 | 2 | 3 | 2 | 1 | 2 | 3 | 1 | 15 | 17 | 3
5 | COc1cc(C2CC(c3cc4ccccc4o3)=NN2C(=O)Nc2ccccc2)ccc1O (stereo unspecified) | 1 | 2 | 1 | 3 | 1 | 2 | 3 | 2 | 1 | 2 | 2 | 116 | 121 | 2
6 | COc1cc(C2CC(c3cc4ccccc4o3)=NN2C(=O)Nc2cccc(O)c2)ccc1O (stereo unspecified) | 2 | 3 | 1 | 2 | 1 | 3 | 2 | 1 | 1 | 3 | 1 | 24 | 21 | 2
7 | COc1cc(C2CC(c3cc4ccccc4o3)=NN2)ccc1O (stereo unspecified) | 0 | 1 | 0 | 1 | 1 | 0 | 0 | 0 | 0 | 0 | 0 | 112 | 100 | 0
8 | CN[C@@H]1[C@H](O[C@H]2[C@H](O[C@H]3[C@H](O)[C@@H](O)[C@H](N=C(N)N)[C@@H](O)[C@@H]3N=C(N)N)O[C@@H](C)[C@]2(O)C=O)O[C@@H](CO)[C@H](O)[C@H]1O [STREPTOMYCIN] | 13 | – | – | – | – | 16 | 15 | – | 10 | 16 | 10 | – | – | –
